The source of these data is patent US8153803B2, “Compositions and methods for modulating sirtuin activity” (The General Hospital Corporation, priority 2006, dated 2012).

pIC50: −log10 of the molar value.

In assay [1] the test system is α-synuclein aggregates. As to conditions: previously identified (WO 05/087217); cited from earlier work.
Assay [2] has as its system H4 neuroglioma cells transfected with α-synuclein. As to conditions: previously identified (WO 05/087217); cited from earlier work.
Another assay deals with T1, SIRT2 (Homo sapiens, UniProt Q8IXJ6).
T1 construct: purchased Biomol (Plymouth Meeting, Pa.)
T1 sequence (Q8IXJ6 1-389): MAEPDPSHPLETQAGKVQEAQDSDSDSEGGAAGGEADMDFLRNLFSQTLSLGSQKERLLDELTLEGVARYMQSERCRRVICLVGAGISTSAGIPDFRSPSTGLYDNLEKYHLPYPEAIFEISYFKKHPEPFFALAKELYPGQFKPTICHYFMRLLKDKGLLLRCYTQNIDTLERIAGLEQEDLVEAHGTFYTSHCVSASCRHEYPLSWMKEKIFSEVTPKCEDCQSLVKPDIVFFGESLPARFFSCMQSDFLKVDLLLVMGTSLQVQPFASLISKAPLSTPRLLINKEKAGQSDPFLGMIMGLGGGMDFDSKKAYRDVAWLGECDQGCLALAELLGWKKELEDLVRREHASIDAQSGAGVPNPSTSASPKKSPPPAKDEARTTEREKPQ
The experiment in a line: Fluorescent SIRT enzyme assay (recombinant enzyme, fluorescent peptide substrate). It counts as biochemical.

Assay [3] deals with H4 neuroglioma cells transfected with α-synuclein. The experiment in a line: α-Synuclein toxicity assay (adenylate kinase release, ToxiLight). It counts as cell-based, human. To be noted: H4 cells overexpressing α-synuclein. The procedure:
Cell culture and transfection: HeLa cells were cultured in DMEM supplemented with 10% fetal bovine serum (FBS) and 2 mM L-glutamine. Human H4 neuroglioma cells (“H4 cells” HTB-148 from the American Type Culture Collection (ATCC), Manassas, Va., USA) were maintained in OPTI-MEM (Life Technologies, Grand Island, N.Y., USA) supplemented with 10% FBS. H4 cells were passaged 24 hours prior to transfection and plated in 24-well plates. The cells were transfected, using a pcDNA3.1hygro vector (Invitrogen) and […] (Qiagen, Chatsworth, Calif., USA) according to the manufacturer's instructions. Compounds or DMSO were added after the transfection procedure was concluded.
α-Synuclein toxicity assay: Toxicity was analyzed 24 hours after transfection by measuring the release of adenyate kinase from damaged cells into the culture medium using the ToxiLight™ kit (Cambrex, Walkersville, Md.) according to the manufaturer's protocol.

The subject of assay [4] is α-synuclein aggregates. The experiment in a line: α-Synuclein aggregation phenotype in cells. It counts as cell-based. As to conditions: correlated with functional rescue.
Another assay concerns HeLa cells. The assay is described as follows: Cell-based SIRT2 inhibition (α-tubulin acetylation, Western blot). More on the design: species or system human. (In western blotting, separated proteins are transferred to a membrane and probed.)
Another assay concerns the target T2, SIRT1 (Homo sapiens, UniProt Q96EB6).
T2 sequence (Q96EB6 1-747): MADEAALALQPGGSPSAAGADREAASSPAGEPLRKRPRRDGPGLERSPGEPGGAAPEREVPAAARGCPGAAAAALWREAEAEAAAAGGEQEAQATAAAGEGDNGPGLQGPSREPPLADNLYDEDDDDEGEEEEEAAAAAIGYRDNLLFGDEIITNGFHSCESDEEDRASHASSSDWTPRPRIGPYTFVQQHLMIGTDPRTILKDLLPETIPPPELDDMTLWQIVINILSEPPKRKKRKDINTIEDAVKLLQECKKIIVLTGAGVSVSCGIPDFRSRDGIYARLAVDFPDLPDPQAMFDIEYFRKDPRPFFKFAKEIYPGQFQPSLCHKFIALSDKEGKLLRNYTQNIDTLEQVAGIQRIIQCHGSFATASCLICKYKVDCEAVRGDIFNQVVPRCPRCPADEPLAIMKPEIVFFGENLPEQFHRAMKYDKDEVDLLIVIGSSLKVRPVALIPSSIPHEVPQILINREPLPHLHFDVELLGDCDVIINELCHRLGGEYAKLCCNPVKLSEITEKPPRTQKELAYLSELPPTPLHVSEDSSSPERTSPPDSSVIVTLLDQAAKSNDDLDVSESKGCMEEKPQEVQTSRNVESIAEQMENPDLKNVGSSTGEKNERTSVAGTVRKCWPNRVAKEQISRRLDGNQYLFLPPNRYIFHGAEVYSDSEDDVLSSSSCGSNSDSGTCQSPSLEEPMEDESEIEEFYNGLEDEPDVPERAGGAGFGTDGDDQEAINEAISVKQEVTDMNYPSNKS
The assay is described as follows: Fluorescent SIRT enzyme assay (recombinant enzyme, fluorescent peptide substrate). It counts as biochemical. To be noted: at compound concentrations of 40 μM or higher.

Procedure for HeLa cells: Tubulin and sirtuin Western blot analysis: Samples were separated on 10% polyacrylamide gels and transferred to a 0.45 μm PVDF membrane (Millipore, Bedford Mass.). Membranes were blocked with a 5% milk solution in PBST. Blots were then probed with antibodies to either SIRT2 (Santa Cruz A-5 at 1:100), tubulin (Sigma, St. Louis Mo., B-5-1-2) or acetylated tubulin (Sigma, 6-11B-1), both at 1:5000. Secondary detection was performed using an HRP-conjugated anti-mouse antibody (Sigma) at 1:4000, and exposed using an ECL detection kit (PerkinElmer). […] The following morning, medium was removed and fresh medium containing compound was added to the wells. After 3 hours, medium was removed and cells were washed 3× with PBS. After the final wash, 100 μL of a hypotonic lysis buffer was added to each well, and the cells were lysed at 37° C. for 5 minutes. The lysates were transferred to eppendorf tubes and centrifuged at 16,000×g for 10 minutes at room temperature. The resulting supernatant contained soluble tubulin monomers, while the pellet contained the insoluble microtubule polymers. […] SDS sample buffer was added to all the samples, followed by Western blot analysis.

One may read the pIC50 as the IC50 on a negative log10 scale, so that one unit is a factor of ten. With `O=[N+]([O-])c1ccc(Sc2nnc(COc3ccccc3)n2-c2ccccc2)c2cccnc12` [B2], in the assay with α-synuclein aggregates [1], the “α-synuclein aggregates / inclusions” value was “decrease in the number of small α-synuclein aggregates and the formation of large inclusions”. For the same compound, the “inhibition of α-synuclein-mediated cellular toxicity” value in assay [2] is recorded as “inhibits α-synuclein-mediated cellular toxicity”. Besides, on SIRT2 (recombinant SIRT2, fluorescent peptide substrate, read-out: IC50 against SIRT2), the pIC50 was 4.46. For the same compound, at SIRT2 (versus other sirtuins tested (SIRT1, SIRT3)), the “selectivity for SIRT2” value is recorded as “selective inhibition of SIRT2”.
In the case of `O=C(Nc1cccc([N+](=O)[O-])c1)c1cccc(S(=O)(=O)N2CCCCCC2)c1` [AK-1, 3-(azepane-1-sulfonyl)-N-(3-nitro-phenyl)-benzamide], the “rescue of α-synuclein toxicity” value in assay [3] is on record as “prevented some α-synuclein toxicity”. Also, the “α-synuclein aggregates / inclusion size” value with α-synuclein aggregates [4] is listed as “increased inclusion size”.
On to `N#C/C(=C\c1ccc(-c2cc(Cl)ccc2Cl)o1)C(=O)Nc1cccc2ncccc12` [AGK2], for which the “acetylation of α-tubulin in compound-treated cells” value in the assay with HeLa cells is recorded as “increasing the acetylation of α-tubulin”. Moreover, the “inhibition of SIRT1” value at SIRT1 is “slightly inhibits”. The “rescue of α-synuclein toxicity” value in assay [3] is “can rescue α-synuclein toxicity”. The “α-synuclein aggregates / inclusion size” value in the assay on α-synuclein aggregates [4] is reported as “formation of large inclusions, while reducing number of small aggregates”.
